In PubChem BioAssay (NCI):
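Values below derive from 48-hour exposures of cells grown in 96-well plates, with endpoints linearly interpolated between the two concentrations bracketing the appropriate inhibition level. GI50: concentration for 50% inhibition of growth. TGI is the concentration that stops growth completely.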

Tests used:
Test in all cases: DTP human tumour cell line panel, 48 h
HCT-116 colon = system: HCT-116 colon
OVCAR-4 ovarian = system: OVCAR-4 ovarian
CCRF-CEM leukemia = system: CCRF-CEM leukemia
SF-539 CNS = system: SF-539 CNS
A498 renal = system: A498 renal
T-47D breast = system: T-47D breast
PC-3 prostate = system: PC-3 prostate
SK-MEL-2 melanoma = system: SK-MEL-2 melanoma
DU-145 prostate = system: DU-145 prostate
NCI/ADR-RES ovarian = system: NCI/ADR-RES ovarian

Row | Compound | TGI (HCT-116 colon) [µM] | TGI (OVCAR-4 ovarian) [µM] | TGI (CCRF-CEM leukemia) [µM] | TGI (SF-539 CNS) [µM] | TGI (A498 renal) [µM] | GI50 (T-47D breast) [µM] | TGI (T-47D breast) [µM] | GI50 (PC-3 prostate) [µM] | TGI (PC-3 prostate) [µM] | GI50 (SF-539 CNS) [µM] | GI50 (SK-MEL-2 melanoma) [µM] | TGI (SK-MEL-2 melanoma) [µM] | GI50 (DU-145 prostate) [µM] | TGI (DU-145 prostate) [µM] | GI50 (A498 renal) [µM] | GI50 (HCT-116 colon) [µM] | GI50 (NCI/ADR-RES ovarian) [µM] | TGI (NCI/ADR-RES ovarian) [µM] | GI50 (OVCAR-4 ovarian) [µM]
1 | C[N+]1(C)C/C(=C\c2ccc(O)cc2)C(=O)/C(=C/c2ccc(O)cc2)C1 | > 100 | > 100 | > 100 | > 100 | > 100 | – | – | – | – | – | – | – | – | – | – | – | – | – | –
2 | NC(=S)N/N=C1\CC(c2ccccc2)Nc2ccccc21 (centres undefined) | – | – | > 100 | > 100 | 68.2 | – | – | – | – | – | – | – | – | – | – | – | – | – | –
3 | CCCCCCCCc1ccc(CCC(N)(CO)CO)cc1 | – | – | – | 3.39 | 22.6 | 1.78 | 3.44 | 1.75 | 3.41 | 1.85 | 2.06 | 3.76 | 1.81 | 3.24 | 3.34 | – | – | – | –
4 | COc1cc(O)c2c(=O)c(OC)c(-c3ccc(OC)c(OC)c3)oc2c1.[Zn+2] | > 100 | 32.2 | – | > 100 | – | 5.7 | > 100 | 9.18 | > 100 | – | – | – | 24.6 | > 100 | – | 22.6 | 14.9 | > 100 | 4.19
5 | CCOc1ccc(N=Nc2ccc(-c3ccc(N=Nc4c(O)ccc5cc(S(=O)(=O)O)cc(S(=O)(=O)O)c45)cc3)cc2)cc1 | > 100 | > 100 | > 100 | > 100 | – | – | – | – | > 100 | – | – | > 100 | – | – | – | – | – | > 100 | –
6 | CC(=O)Oc1cc(/C=C/c2ccc(O)cc2)cc(OC(C)=O)c1 | > 100 | > 100 | – | 41.5 | 85.5 | – | > 100 | – | > 100 | – | – | > 100 | – | > 100 | – | – | – | 51.9 | –
7 | CC(=O)c1c(C)cc2cccc(OC3OC(CO)C(O)C(O)C3O)c2c1O (centres undefined) (tested in a mixture with another compound) | > 100 | > 100 | > 100 | > 100 | > 100 | – | > 100 | – | > 100 | – | – | > 100 | – | > 100 | – | – | – | > 100 | –
8 | O=S(=O)([O-])[O-].[Fe+2].[OH2+]c1c(Cl)cc(Cl)cc1/C=N/Nc1ccccn1 | 2.63 | – | – | 1.27 | 4.5 | – | – | – | – | – | – | – | – | – | – | – | – | – | –
9 | Cc1cccc(/C=C2/C(=O)Nc3ccccc32)n1 | 26.2 | 56.7 | > 85.9 | 51.4 | 46.9 | – | 34.2 | – | > 60.9 | – | – | 36.4 | – | 32.9 | – | – | – | 53.2 | –
10 | Cc1ncc(COP(=O)(O)O)c(C)c1O | > 100 | > 100 | – | – | > 100 | – | > 100 | – | > 100 | – | – | > 100 | – | – | – | – | – | > 100 | –
11 | Nc1ccc(S(=O)(=O)NCCS(=O)(=O)O)cc1 | > 100 | > 100 | > 100 | – | > 100 | – | – | – | > 100 | – | – | > 100 | – | > 100 | – | – | – | > 100 | –
12 | N=C(N)SCCN1CCCCC1 | > 100 | > 100 | – | 84.1 | > 100 | – | 85.6 | – | 45.8 | – | – | 17 | – | 64.7 | – | – | – | > 100 | –
13 | C[N+]1(c2ccccc2)C=C(c2ccccc2)SC1=S (centres undefined) | > 100 | – | – | > 100 | 46.7 | – | 8.63 | – | > 100 | – | – | > 100 | – | > 100 | – | – | – | > 100 | –
